Results taken from article PMC4974056, “The proposed channel-enzyme transient receptor potential melastatin 2 does not possess ADP ribose hydrolase activity” (eLife, 2016).
Where “and” joins values, the source holds several entries; their conditions need not be identical. Identical values can stand only once.

Columns and labels:
T5L-TRPM2 = T5L-TRPM2 (Homo sapiens, UniProt O94759, G984L/INS985E/Y985D); test: Excised inside-out patch-clamp recordings, ADPR-dependent channel activation; format: cell-based
Experimental: Oocytes isolated from anaesthetized Xenopus laevis were digested with collagenase, injected with 10–70 ng cRNA, and stored at 18°C. Recordings were done 2–3 days after injection.
The tip of the patch pipette was filled to ~1 cm height with 140 mM Na-gluconate, 2 mM Mg-gluconate2, 10 mM HEPES (pH 7.4 with NaOH); free [Ca^2+] ~4 μM. The pipette electrode was placed into a 140-mM NaCl-based solution carefully layered on top. Bath solution contained 140 mM Na-gluconate, 2 mM Mg-gluconate2, 10 mM HEPES (pH 7.1 with NaOH), and either 1 mM EGTA (to obtain 'zero' (~8 nM) Ca^2+) or 1 mM Ca-gluconate2 (to obtain 125 μM free Ca^2+) ([Csanády and Törocsik, 2009]). Na-ADPR was used at final concentrations of 0.32, 1, 3.2, 10, 32, 100, or 1000 μM, and the Na^+ salt of ε-ADPR at 100 μM. Macroscopic TRPM2 currents were recorded at 25°C at a membrane potential of −20 mV. Currents were amplified, filtered at 2 kHz (Axopatch 200B), digitized at 10 kHz (Digidata 1322A), and stored to disk (Pclamp9, Molecular Devices, Sunnyvale, CA, USA).
Dose dependence of ADPR-induced current activation, expressed as the ratio of mean macroscopic currents observed in the presence of various test [ADPR] (I) and 32 (or 100) μM ADPR (Imax) in the same patch, was fitted to the Hill equation (I/Imax = [ADPR]^n/(K^n+[ADPR]^n). Dose dependence of ADPR-activation in the presence of 100 μM ε-ADPR was expressed as the ratio of the currents observed in the presence of various test [ADPR] + 100 μM ε-ADPR (I) and 100 μM ADPR alone (Imax) in the same patch, and was fitted to the Hill equation substituting K' = K(1+[ε-ADPR]/KI) instead of K (K and n fixed to their control values). Macroscopic current decay time courses following removal of ADPR or Ca^2+ were fitted by single exponentials using the method of least squares.

Chi4S = biological target: T1, Chi4S (Homo sapiens, UniProt O94759); test: Ligand binding assay based on quenching of ε-ADPR fluorescence; conditions: 100 μM Chi4S, 20 mM Tris pH 8.5/100 mM NaCl, 16 mM MgCl2; assuming negligible fluorescence of bound analog; read-out: Kd (upper estimate)
T1 construct: its C-terminal cytosolic NUDT9-homology (NUDT9H) domain; made in house; host or cells: E. coli BL21 (DE3), pJ411 plasmid
Experimental: The ligand binding ability of purified Chi4S protein was assessed using fluorescence quenching of the ADPR analogue 1, N^6-ethenoadenosine-5’-O-diphosphoribose (ε-ADPR - BIOLOG Life Science Institute, Bremen, Germany). A 350-μl volume of 100 μM Chi4S protein in 20 mM Tris (pH 8.5)/100 mM NaCl buffer, supplemented with 16 mM MgCl2, was titrated by increasing concentrations of ε-ADPR. Fluorescence emission scans (350–700 nm) were recorded at a fixed excitation wavelength of 310 nm (Hitachi F-7000, Hitachi High Technologies, Maidenhead, UK). Fluorescence emission for ε-ADPR peaks at ~410 nm. Protein-free buffer or 100 μM bovine serum albumin (BSA; instead of Chi4S) were used as controls. Data are shown as mean ± S.D. of two independent experiments.
Dose dependence of fluorescence (Em = 420 nm) of free ε-ADPR (in buffer) was fitted by an empirical non-linear function to produce a smooth calibration curve, used to obtain upper estimates of free [ε-ADPR] in the presence of 100 μM Chi4S protein and various total [ε-ADPR], assuming negligible fluorescence for the bound, relative to the free, form of the analog. The plot of free vs. total [ε-ADPR] was fitted by the simple binding equation [ε-ADPR]free=0.5([ε-ADPR]total−[P]total−Kd+([ε-ADPR]total−[P]total−Kd)^2+4Kd[ε-ADPR]total),
where [P]total is the total concentration of Chi4S protein (100 μM), and Kd is a free parameter. […]

T1 sequence (O94759 with tags, fused parts or gaps limits assumed): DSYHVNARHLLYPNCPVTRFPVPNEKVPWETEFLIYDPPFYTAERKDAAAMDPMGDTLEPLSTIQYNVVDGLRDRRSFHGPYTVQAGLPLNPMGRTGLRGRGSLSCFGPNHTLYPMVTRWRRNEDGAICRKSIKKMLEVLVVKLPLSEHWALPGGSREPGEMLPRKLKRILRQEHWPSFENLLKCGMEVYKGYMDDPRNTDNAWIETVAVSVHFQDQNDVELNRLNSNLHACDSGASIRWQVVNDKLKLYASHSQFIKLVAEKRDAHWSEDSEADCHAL
Chain of T5L-TRPM2 (O94759 whole entry, stated change not applied): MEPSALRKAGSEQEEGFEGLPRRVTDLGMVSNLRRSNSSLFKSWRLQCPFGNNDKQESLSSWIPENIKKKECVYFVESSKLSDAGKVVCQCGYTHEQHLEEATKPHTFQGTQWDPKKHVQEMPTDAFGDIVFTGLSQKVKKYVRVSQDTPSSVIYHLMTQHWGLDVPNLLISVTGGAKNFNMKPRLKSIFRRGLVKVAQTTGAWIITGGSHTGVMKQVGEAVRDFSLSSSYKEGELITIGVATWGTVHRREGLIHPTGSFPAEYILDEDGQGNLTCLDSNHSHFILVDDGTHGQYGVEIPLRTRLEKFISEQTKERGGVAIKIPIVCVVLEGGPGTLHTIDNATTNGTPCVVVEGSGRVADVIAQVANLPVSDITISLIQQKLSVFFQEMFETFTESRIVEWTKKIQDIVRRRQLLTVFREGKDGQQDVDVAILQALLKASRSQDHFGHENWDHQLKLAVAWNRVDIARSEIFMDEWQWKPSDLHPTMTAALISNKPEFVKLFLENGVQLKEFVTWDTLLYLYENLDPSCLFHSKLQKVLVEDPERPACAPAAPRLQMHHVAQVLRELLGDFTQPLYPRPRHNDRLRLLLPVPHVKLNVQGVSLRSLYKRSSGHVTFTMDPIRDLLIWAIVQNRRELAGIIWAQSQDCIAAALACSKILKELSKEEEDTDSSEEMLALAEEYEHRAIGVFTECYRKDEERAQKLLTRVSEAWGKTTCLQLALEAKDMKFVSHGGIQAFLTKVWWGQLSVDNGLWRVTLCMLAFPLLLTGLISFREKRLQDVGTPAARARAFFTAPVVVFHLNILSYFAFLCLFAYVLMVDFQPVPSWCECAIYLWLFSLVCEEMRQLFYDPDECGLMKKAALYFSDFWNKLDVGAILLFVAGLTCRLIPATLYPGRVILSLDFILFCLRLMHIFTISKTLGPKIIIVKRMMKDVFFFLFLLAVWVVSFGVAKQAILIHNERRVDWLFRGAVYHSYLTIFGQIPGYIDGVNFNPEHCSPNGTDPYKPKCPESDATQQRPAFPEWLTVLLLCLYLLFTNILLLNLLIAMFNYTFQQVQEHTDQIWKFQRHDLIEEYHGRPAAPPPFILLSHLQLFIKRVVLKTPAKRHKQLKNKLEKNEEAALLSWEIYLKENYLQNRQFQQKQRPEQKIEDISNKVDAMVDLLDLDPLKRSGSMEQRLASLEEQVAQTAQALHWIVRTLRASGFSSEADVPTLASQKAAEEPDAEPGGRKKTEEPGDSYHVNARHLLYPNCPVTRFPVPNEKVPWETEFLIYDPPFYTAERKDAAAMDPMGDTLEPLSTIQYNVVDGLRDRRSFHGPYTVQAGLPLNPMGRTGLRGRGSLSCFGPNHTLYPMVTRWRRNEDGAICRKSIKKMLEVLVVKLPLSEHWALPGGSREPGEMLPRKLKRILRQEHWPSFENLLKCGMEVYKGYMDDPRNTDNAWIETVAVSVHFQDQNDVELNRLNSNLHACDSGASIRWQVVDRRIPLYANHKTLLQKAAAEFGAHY

- Ki (T5L-TRPM2; right-shift of ADPR dose response in the presence of 100 μM ε-ADPR, competitive fit, read-out: KI (Kε-ADPR) for binding to native NUDT9H): 112 ± 24 µM
- Kd (Chi4S): 111 µM and ≤ 111 µM
Structure (SMILES): O=P(O)(OC[C@H]1OC(O)[C@H](O)[C@@H]1O)OP(=O)(O)OC[C@H]1O[C@@H](n2cnc3c2ncn2ccnc32)[C@H](O)[C@@H]1O (stereo partly drawn) [ε-ADPR, 1, N^6-ethenoadenosine-5’-O-diphosphoribose]
- effect on ADPR-evoked TRPM2 currents (T5L-TRPM2; inside-out patch, 1 or 100 μM ADPR): suppressed ADPR-evoked TRPM2 currents in a dose-dependent manner
